Reference: the supplement of paper PMC10307832

Experiments:
Experiment in all cases: relative viability (nuclei count vs DMSO), 5 days (fraction); higher = more cells survive
AGI-6780 + Luminespib = compound: O=C(Nc1cccc(C(F)(F)F)c1)Nc1cc(S(=O)(=O)NC2CC2)ccc1-c1ccsc1 [AGI-6780] + CCNC(=O)c1noc(-c2cc(C(C)C)c(O)cc2O)c1-c1ccc(CN2CCOCC2)cc1 [Luminespib] (partner 0.01 µM)
How it was run: (§1)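 One day after seeding in 1536-well plates, lung cancer cell lines were dosed by pin tool. Dosing was either single-drug or a fixed anchor-drug dose plus five library-drug doses (not always all listed) in √10 steps. After 5 days, nuclei were stained in one fix-and-stain step and counted on 4× images, and relative viability is the nuclei count of treated wells over that of vehicle wells, given as the median of duplicate plates.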

AGI-6780 + Tozasertib = compound: O=C(Nc1cccc(C(F)(F)F)c1)Nc1cc(S(=O)(=O)NC2CC2)ccc1-c1ccsc1 [AGI-6780] + Cc1cc(Nc2cc(N3CCN(C)CC3)nc(Sc3ccc(NC(=O)C4CC4)cc3)n2)n[nH]1 [Tozasertib] (partner 0.1 µM)
How it was run: as §1

AGI-6780 + Alpelisib = compound: O=C(Nc1cccc(C(F)(F)F)c1)Nc1cc(S(=O)(=O)NC2CC2)ccc1-c1ccsc1 [AGI-6780] + Cc1nc(NC(=O)N2CCC[C@H]2C(N)=O)sc1-c1ccnc(C(C)(C)C(F)(F)F)c1 [Alpelisib] (partner 2 µM)
How it was run: as §1

AGI-6780 + Dasatinib = compound: O=C(Nc1cccc(C(F)(F)F)c1)Nc1cc(S(=O)(=O)NC2CC2)ccc1-c1ccsc1 [AGI-6780] + Cc1nc(Nc2ncc(C(=O)Nc3c(C)cccc3Cl)s2)cc(N2CCN(CCO)CC2)n1 [Dasatinib] (partner 0.075 µM)
How it was run: as §1

Cell Line	relative viability (AGI-6780 + Luminespib; first compound 0.08 µM)	relative viability (AGI-6780 + Luminespib; first compound 0.253 µM)	relative viability (AGI-6780 + Luminespib; first compound 0.8 µM)	relative viability (AGI-6780 + Luminespib; first compound 2.53 µM)	relative viability (AGI-6780 + Luminespib; first compound 8 µM)	relative viability (AGI-6780 + Tozasertib; first compound 0.08 µM)	relative viability (AGI-6780 + Tozasertib; first compound 0.253 µM)	relative viability (AGI-6780 + Tozasertib; first compound 0.8 µM)	relative viability (AGI-6780 + Tozasertib; first compound 2.53 µM)	relative viability (AGI-6780 + Tozasertib; first compound 8 µM)	relative viability (AGI-6780 + Alpelisib; first compound 0.08 µM)	relative viability (AGI-6780 + Alpelisib; first compound 0.253 µM)	relative viability (AGI-6780 + Alpelisib; first compound 0.8 µM)	relative viability (AGI-6780 + Alpelisib; first compound 2.53 µM)	relative viability (AGI-6780 + Alpelisib; first compound 8 µM)	relative viability (AGI-6780 + Dasatinib; first compound 0.08 µM)	relative viability (AGI-6780 + Dasatinib; first compound 0.253 µM)	relative viability (AGI-6780 + Dasatinib; first compound 0.8 µM)	relative viability (AGI-6780 + Dasatinib; first compound 2.53 µM)	relative viability (AGI-6780 + Dasatinib; first compound 8 µM)
201T	1.09	1.04	1.06	0.988	1.08	0.916	0.95	0.938	0.835	0.968	1.11	1.05	0.991	0.941	1.01	0.613	0.53	0.564	0.476	0.6
A-427	0.943	0.717	0.882	0.802	0.97	0.264	0.217	0.19	0.154	0.168	1.06	1.02	1.09	0.902	1.06	0.696	0.66	0.759	0.582	0.668
ABC-1	0.58	0.447	0.63	0.821	0.408	0.186	0.212	0.17	0.206	0.167	1.14	0.918	1.08	0.829	1.24	0.589	0.57	0.632	0.553	0.712
BEN	0.355	0.331	0.37	0.33	0.358	0.526	0.497	0.503	0.433	0.425	1.04	0.966	1.36		0.914	0.219	0.348	0.291	0.3	0.377
CAL-12T	0.245	0.58	0.644	0.476	0.402	0.389	0.32	0.3	0.276	0.31	1.33	1.15	1.29	1.23	1.13	0.549	0.501	0.676	0.4	0.487
COR-L23	0.772	0.641	0.695	0.663	0.643	0.224	0.216	0.206	0.213	0.178	0.757	0.688	0.67	0.747	0.699	0.548	0.42	0.529	0.496	0.488
COR-L 105	0.81	0.654	0.725	0.618	0.535	0.402	0.357	0.388	0.336	0.441	1.19	1.02	0.986	0.863	1.04	0.345	0.349	0.397	0.369	0.378
Calu-6											1.01	0.977	0.97	0.945	1.04					
ChaGo-K-1	0.573	0.467	0.64	0.497	0.76	0.238	0.229	0.221	0.197	0.222						0.612	0.543	0.576	0.524	0.642
EBC-1											0.965	0.923	0.798	0.783	0.841					
EKVX	0.916	0.877	0.989	0.918	0.847	0.349	0.39	0.412	0.335	0.366	0.96	0.839	0.995	0.755	0.898	0.583	0.467	0.598	0.6	0.619
EMC-BAC-2	1.2	1.24	1.17	0.947	1.18	0.278	0.295	0.249	0.253	0.324	0.797	0.73	0.756	0.67	0.778	0.313	0.338	0.311	0.273	0.334
EPLC-272H		0.359	0.267	0.166	0.244		0.307	0.281	0.187	0.257	0.88	0.972	0.927	0.785	0.864		0.423	0.292	0.285	0.365
H3255	0.808	0.925	0.905	0.852	0.949	0.593	0.52	0.462	0.585	0.552	0.687	0.62	0.728	0.468	0.754	0.349	0.374	0.456	0.353	0.333
HARA	0.787	0.594	0.177	0.944	0.93	0.0824	0.106	0.114	0.0867	0.111	0.925	0.834	0.585	0.801	0.974	0.229	0.278	0.259	0.179	0.233
HCC-15	0.407	0.247	0.274	0.38	0.3	0.625	0.438	0.547	0.186	0.458	0.883	0.91	0.939	0.712	0.919	0.732	0.636	0.736	0.437	0.621
HCC-44	1.18	1.01	1.16	1.09	0.982	0.831	1.02	1.25	0.981	0.814	0.874	0.755	0.826	0.626	0.817					
HCC-78							0.404	0.452	0.304	0.438	0.366	0.331	0.462	0.32	0.361		0.388	0.433	0.364	0.351
